# “Also recorded” adds a separate entry of the source.
# Tests used:
# [1] = test system: mouse primary cortical neurons; assay: Apoptosis of neurons induced by NMDA and glutamate; format: cell-based
# [2] = test system: mouse primary cortical neurons; assay: Lactate release (glycolysis) upon excitotoxic stimuli; format: cell-based; details: NMDA or glutamate 100 μM 10 minutes, then inhibitor 0.01 μM 24 hours
# Description: To directly test the ability of the PFKFB3 inhibitor, AZ67 and Compound 1, to protect against the damage caused by excitotoxic stimuli, mouse primary cortical neurons were subjected to a short-term exposure to NMDA or glutamate (100 μM for 10 minutes), a well-known excitotoxic stimuli (Almeida and Bolahos, 2001). For NMDAR activation, neurons at 8 days in vitro were incubated with 100 μM glutamate (plus 10 μM glycine) or 100 μM NMDA (plus 10 μM glycine) for 10 minutes. Neurons were then washed and further incubated in culture medium with the PFKFB3 inhibitors for 24 hours. A colorimetric NADP/NADPH assay kit (Abcam) was used. […] NADPH was determined in 200 μl of the supernatant, after heatinged […] 60° C. for 30 minutes to decompose NADP+. Actual NADP and NADPH+ concentrations were calculated by extrapolating values to a NADPH standard curve (0-100 pmol/well).
# In view that this treatment causes PFKFB3 stabilization leading to glycolytic activation and PPP inhibition (Rodriguez-Rodriguez et al., 2012), we reasoned that PFKFB3 inhibition by AZ67 and Compound 1 could abrogate these effects. […] To directly test whether this effect is associated with the control of PFKFB3 on glycolysis, we next assessed the glycolytic-end product, lactate, released to the incubation medium.
# [3] = test system: mouse primary cortical neurons; assay: Apoptosis upon glutamate or NMDA (annexin V+/7AAD-); format: cell-based; details: for prevention of apoptotic neuronal death: inhibitor 0.01 μM
# Description: To directly test the ability of the PFKFB3 inhibitor, AZ67 and Compound 1, to protect against the damage caused by excitotoxic stimuli, mouse primary cortical neurons were subjected to a short-term exposure to NMDA or glutamate (100 μM for 10 minutes), a well-known excitotoxic stimuli (Almeida and Bolahos, 2001). For NMDAR activation, neurons at 8 days in vitro were incubated with 100 μM glutamate (plus 10 μM glycine) or 100 μM NMDA (plus 10 μM glycine) for 10 minutes. Neurons were then washed and further incubated in culture medium with the PFKFB3 inhibitors for 24 hours. A colorimetric NADP/NADPH assay kit (Abcam) was used. Cells were resuspended in 500 μl of NADP/NADPH extraction buffer, vortexed and centrifuged at 14,000 rpm for 5 minutes to remove insoluble material. The supernatant was used for NADPH +plus NADP+ measurement. NADPH was determined in 200 μl of the supernatant, after heatinged […] 60° C. for 30 minutes to decompose NADP+. Actual NADP and NADPH+ concentrations were calculated by extrapolating values to a NADPH standard curve (0-100 pmol/well).
# To show this, neurons were treated with glutamate of NMDA, and apoptosis assessed by annexin V+/7AAD− staining using flow cytometry, as described above.
# [4] = test system: Cln7Δex2 mice; assay: AZ67 in vivo administration in Batten disease model; details: 1 nmol/mouse intracerebroventricularly every 24 h, two months
# Description: AZ67 for in vivo usage was dissolved in 20% (wt/vol) PEG200 in PBS to a 20 mM concentration. 4 groups were generated (4-6 animals/group), namely: WT-vehicle, CLN7Δex2-vehicle, WT-AZ67, CLN7Δex2-AZ67. The canula was inserted intracerebroventricularly at the age of 8 weeks and, after at least of 15 days of recovery, we injected the AZ67 at the dose identified previously (l nmol/mouse) every 24 h. The duration of the experiment was determined by the presence of hindlimb clasping the CLN7Δex2-control (vehicle), being this time two months. After this, the animals were perfused, and their brains dissected to be investigated by immunofluorescence and electron microscopy (EM).
# Mice (5 months for AZ67 intraventricular injections; 3 months for mCAT expression approach) were anaesthetized by intraperitoneal injection of a mixture of xylazine hydrochloride (Rompun; Bayer) and ketamine hydrochloride/chlorbutol (Imalgene; Merial) (1:4) at 1 ml per kg body weight and then perfused intra-aortically with 0.9% NaCl followed by 5 ml p/g body weight of Somogyi (4% (wt/vol) paraformaldehyde, and 0.2% (vol/vol) picric acid, in 0.1 M PB; pH 7.4). After perfusion, brains were dissected out sagitally in two parts and post-fixed with Somogyi for 2 h at room temperature. Brain blocks were rinsed successively for 10 min, 30 min and 2 h with 0.1 M PB solution and cryoprotected in 10%, 20% and 30% (wt/vol) sucrose in PB sequentially, until they sank. After cryoprotection, 40-m-thick sagittal sections were obtained with a freezing-sliding cryostat (Leica). Sectioning of WT and Cln7Δex2 brains were performed under the same conditions and sessions. The sections were collected serially in a 12-well plate in 0.1 M PB, rinsed three times for 10 min in 0.1 M PB and used for subsequent immunohistochemistry and lipofuscin observation. The section-containing wells that were not used were kept in freezer mix (30% (vol/vol) polyethylene glycol, 30% (vol/vol) glycerol in 0.1 M PB) at −20° C. […]
# Sections were examined with epifluorescence and the appropriate filter sets under an Operetta CLS high-content imaging system (PerkinElmer). […] Images were analysed with the Harmony software with PhenoLOGIC (PerkinElmer). Interest brain areas (cortex, hippocampus and cerebellum) were selected and subsequently quantified as mean intensity per area by using the ‘measure rectangle’ function, which represents the mean intensity of a channel per selected area.
smiles,measurement,setting,value
"Cc1noc(C)c1Cn1cc(C#N)c2cc(Oc3ccc(NC(=O)[C@@H]4CCCN4)cc3)ccc21 [AZ67, (2S)-N-[4-({3-cyano-1-[(3,5-dimethyl-1,2-oxazol-4-yl)methyl]-1H-indol-5-yl}oxy)phenyl]pyrrolidine-2-carboxamide]",apoptotic neuronal death increased by glutamate and NMDA,[1]; FIG. 5,significantly prevented
same,neuroprotection under PFK1-M overexpression,"[1]; PFK1-M overexpression, FIGS. 6B and 6C",abolish the neuroprotection
same,protection of mouse primary cortical neurons from apoptosis,"[1]; apoptosis induced by NMDA and glutamate, FIG. 6A",protect
same,lactate released (activation of glycolysis),[2],fully prevented; also recorded: prevent the increase in lactate production
same,protection from apoptosis,[3]; NMDA and glutamate,protect mouse primary cortical neurons from apoptosis
same,prevention of apoptotic neuronal death,[3]; NMDA,90%
same,prevention of apoptotic neuronal death,[3]; glutamate,76%
same,accumulation of SCMAS in the cortex,[4],prevented
same,accumulation of lipofuscin in the cortex,[4],prevented
same,accumulation of reactive astroglia in the cortex,[4],prevented
same,hindlimb paralysis,[4],prevented
